Test results from patent US20210236577A1, “LIVESTOCK FEED ADDITIVE” (DELACON BIOTECHNIK GMBH, priority 2018, published 2021).
Like-named read-outs stand apart in the source and are kept apart here. Each block holds one compound with its values, some of them ahead of it.

Experiments:
[1] = test system: broilers exposed to heat stress; test: Trial V: growth performance of broilers under heat stress, combinations of naringin with different 1,8-cineole concentrations; assay type: in vivo, Ross 308 male broilers
Method: In the dose response trial for compound “B” (Trial IV) beneficial effects on the performance of the broilers under heat stress could be observed. […] Consequently in this trial the additional value of adding 1,8-Cineole (compound “A”) in a dose-dependent manner (6/12/24 mg/kg feed) to compound “B” at constantly 12 mg Naringin/kg diet was evaluated. The addition of 500 mg/kg betaine alone or 500 mg betaine+12 mg 1,8-Cineole/kg served as reference groups.
1224 one-day old Ross 308 male broilers from a total of 1400 were used in the experiment. Any day-old broilers, showing signs of health problems, injury, or of being too small or in poor condition were excluded in the selection process. Broilers were sexed at the hatchery. All day-old chicks were individually weighted and grouped according to weight. The birds were then assigned to the 36 pens (6 repetitions of 6 treatments), and each pen initially consisted of 34 broilers. On day 4 of the experiment in each pen, the weakest 2 broilers were removed and all pens were equated to 32 birds per pen by negative selection.
Birds of the negative control group were fed the basal diet without any further phytogenic additive. […]

heat shock protein HSP70 = assay type: cell-based, Human
Description: ID NO:1); β-actin reverse: [NT] NO:2); HSP70 forward: [NT] ID NO:3); HSP70 reverse: [NT] ID NO:4).

[2] = test system: broilers exposed to heat stress; test: Trial IV: growth performance of broilers under heat stress, naringin dose levels vs betaine; assay type: in vivo, Ross 308 male broilers; details: for effect on body weight and daily body weight gain vs negative control: pre-heat stress period d 0 to 21
Description: 1152 one-day old Ross 308 male broilers from a total of 1400 were used in the experiment. Any day-old broilers, showing signs of health problems, injury, or of being too small or in poor condition were excluded in the selection process. Broilers were sexed at the hatchery. All day-old chicks were individually weighted and grouped according to weight. The birds were then assigned to the 36 pens (6 repetitions of 6 treatments), and each pen initially consisted of 34 broilers. On day 4 of the experiment in each pen, the weakest 2 broilers were removed and all pens were equated to 32 birds per pen by negative selection. Birds of the negative control group were fed the basal diet without any further phytogenic additive. The reference group was fed a diet providing 500 mg/kg feed betaine from a natural betaine source (Actibeet®, Agrana). To the diets of groups 3, 4, 5 and 6 the phytogenic premixes with compound “B” were added to achieve final dietary Naringin concentrations of 12/18/24/30 mg/kg of feed.
The trial was carried out at the Delacon Research Facility (Stošíkovice na Louce, Czech Republic). Birds were kept in floor pens, each having an area of 2.1 m^2 (1,65×1,275 m; 2.03 m^2 of usable area=not counting the space occupied with the feeder), with fresh wood shavings as bedding material. Stocking density at the end of the trial was 14,78 chicks/m^2 (38.7 kg/m^2). The building was supplied with artificial, programmable lights, automated central heating and forced ventilation. Temperature was set according to the breeders' recommendations from day 1 to day 21 of age. The onset of heat stress was on day 22 of age. Thereby a cyclic heat stress regime was applied. The heat stress period was from 09:00 in the morning until 17:00 in the afternoon. The average house temperature in this period was 34° C. The “cooling night period” was from 19:00 in the evening until 07:00 in the morning. The average room temperature in this period was 26° C. The time intervals from 07:00 to 09:00 in the morning and from 17:00 to 19:00 in the evening was used to gradually increase or decrease the temperature to 34° C. and 26° C., respectively. In order to increase the humidity of the chicken house under the heat stress regime, towels on the heat panels were moistened 5 times per hour during the heat stress period. Relative humidity was maintained at about 70-80%.
Birds were fed a basal diet, based on wheat, corn, and soybean meal. For each feeding period (starter/grower, grower/finisher) feed was calculated to be iso-nutritive (Table 6). Dietary nutrient concentrations were calculated to fulfill the current recommendations of the broilers according to the breeders' recommendations. According to the applied 2-phase-feeding, a starter/grower diet was offered from days 1 to 21 and a grower/finisher diet from days 22 to 42. The composition of the diets, used in trials IV, V, VI, for the single phases and the calculated nutrient contents are given in Table. All diets were offered to the birds as pelleted feed.
The statistical analyses were performed with the software package SAS. After checking the homogeneity of the data, means were compared by the usual test procedures (Tukey test). Statistical significance was declared at P 0.05, with 0.05<P 0.10 considered as a near-significant trend.

Compound: C[N+](C)(C)CC(=O)[O-] [betaine, N,N,N-Trimethylammonioacetate, reference compound]
increase of daily weight gain compared to the negative control ([1]; pre-heat stress period, betaine 500 mg/kg alone or plus 12 mg/kg compound A): 2.5%
growth promoting effect / increase of growth performance compared to the negative control ([1]; under heat stress conditions d22 to 42, betaine 500 mg/kg, all tested combinations AB): +2.0%
heat shock protein 70 induction compared to untreated control cells (heat shock protein HSP70; CaCo2, 41° C. 1 hour, 100, 250 and 1000 mg/L betaine): −7 to −19%
heat shock protein 70 response compared to untreated control cells (heat shock protein HSP70; CaCo2, 41° C. 1 hour, 500 and 2000 mg/L betaine, non-significant): +10 to +12%
body weight at day 42 compared with untreated control ([2]; heat stress d22 to 42, betaine 500 mg/kg): +170 g
effect on body weight and daily body weight gain vs negative control ([2]; betaine 500 mg/kg): +4.9%

Compound: C[C@@H]1O[C@@H](O[C@H]2[C@H](Oc3cc(O)c4c(c3)O[C@H](c3ccc(O)cc3)CC4=O)O[C@H](CO)[C@@H](O)[C@@H]2O)[C@H](O)[C@H](O)[C@H]1O [B, Naringin]
HSP 70 induction compared to untreated control cells (heat shock protein HSP70; CaCo2, 41° C. 1 hour, 60 mg Naringin/L, adverse effect): −23%
increase in HSP 70 induction compared to untreated control cells (heat shock protein HSP70; CaCo2, 41° C. 1 hour, Naringin 12 to 30 mg/L, significant): +24 to +27%
increase of HSP 70 induction compared to untreated control cells (heat shock protein HSP70; CaCo2, 41° C. 1 hour, lowest Naringin concentration tested (6 mg/L), not significant): +16%
performance values (body weight/weight gain/FCR) vs betaine reference group ([2]; broilers under heat stress, 12 mg/kg Naringin complete diet vs 500 mg/kg betaine): slightly better than in the betaine reference group
body weight at day 42 compared with untreated control ([2]; heat stress d22 to 42, compound B groups 12-30 mg/kg): +80 to +140 g
final body weight compared to the negative control ([2]; heat stress d22 to 42, lowest compound B dose (12 mg/kg)): +140 g
effect on body weight and daily body weight gain vs negative control ([2]; all doses 12, 18, 24 and 30 mg/kg diet): +2.79 to +13%
effect on body weight and daily body weight gain vs negative control ([2]; lowest dose 12 mg/kg, significant): +13%

HSP 70 induction in CaCo2 cells over the control (in words) (heat shock protein HSP70; Caco-2): improve HSP 70 induction
Compound: Betalain [C]

Compound: CC12CCC(CC1)C(C)(C)O2 [A, 1,8 Cineole]
increase in HSP 70 induction compared to control cells (heat shock protein HSP70; CaCo2, 41° C. 1 hour, 7.5 mg 1,8 Cineole/L): 15%
increase of HSP 70 gene expression (heat shock protein HSP70; CaCo2, 41° C. 1 hour, 15 mg 1,8-Cineole/L): 22%
increase of HSP 70 gene expression (heat shock protein HSP70; CaCo2, 41° C. 1 hour, 30 mg 1,8-Cineole/L): 24%
increase of HSP 70 expression (heat shock protein HSP70; CaCo2, 41° C. 1 hour, highest dose tested, 45 mg 1,8-Cineole/L): 44%
increase of HSP 70 expression / induction, single substances alone vs combination (FIG. 3 E) (heat shock protein HSP70; CaCo2 under heat stress, at the tested levels (not given)): 20.8%
